Values after ≈ are worked out from the molar mass of the structure shown.
Assays:
Assay in all cases: Agar dilution MIC
Prevotella bivia = type: cell-based; conditions: Prevotella bivia, 21 isolates
Porphyromonas gingivalis = type: cell-based; conditions: Porphyromonas gingivalis, 13 isolates
Clostridium ramosum = type: cell-based; conditions: Thomasclavelia ramosa, 10 isolates
Clostridium dfficile = type: cell-based, Clostridium difficile; conditions: Clostridium
[1] = system: Prevotella buccae-oris group; type: cell-based; conditions: Prevotella, 22 isolates
Clostridium inocuum = type: cell-based, Clostridium innocuum; conditions: Clostridium, 11 isolates
Porphyromonas canoris = type: cell-based; conditions: Porphyromonas canoris, 10 isolates
Veillonella spp. = type: cell-based; conditions: Veillonella, 24 isolates
[2] = system: Clostridium clostridioforme; type: cell-based; conditions: Clostridium, 11 isolates
Porphyromonas macaccae = type: cell-based; conditions: Porphyromonas, 13 isolates
[3] = system: Peptostreptococcus asaccharolyticus; type: cell-based; conditions: Peptoniphilus asaccharolyticus, 11 isolates
Prevotella intermedia = type: cell-based; conditions: 11 isolates
[4] = system: Fusobacterium spp. group 2; type: cell-based, Fusobacterium mortiferum, necrogenes, ulcerans; conditions: Fusobacterium, 12 isolates
[5] = system: Peptostreptococcus micros; type: cell-based; conditions: 12 isolates
[6] = system: Anaerobiospirillum thomasii; type: cell-based; conditions: Anaerobiospirillum thomasii, 13 isolates
Bacteroides tectum = type: cell-based; conditions: 22 isolates
Bacteroides gracilis = type: cell-based, Bacteroides gracilis (Campylobacter gracilis); conditions: 11 isolates
[7] = system: Actinomyces odontolyticus; type: cell-based; conditions: Schaalia odontolytica, 10 isolates
[8] = system: Prevotella denticola/loeschii group; type: cell-based; conditions: 6 isolates
Porphyromonas spp. = type: cell-based, Porphyromonas cangingivalis, cansulci, circumdentaria, levii; conditions: Porphyromonas, 11 isolates
[9] = system: Fusobacterium spp group 1; type: cell-based; conditions: 19 isolates
[10] = system: Peptostreptococcus magnus; type: cell-based; conditions: Finegoldia magna, 13 isolates
[11] = system: Porphyromonas asaccharolyticus; type: cell-based, Porphyromonas asaccharolytica; conditions: Porphyromonas, 11 isolates
Fusobacterium russii = type: cell-based
Fusobacterium varium = type: cell-based; conditions: Fusobacterium varium, 17 isolates
Actinomyces israelii = type: cell-based; conditions: 6 isolates
[12] = system: Prevotella melaninogenica; type: cell-based; conditions: Prevotella melaninogenica, 12 isolates
Bilophila wadsworthia = type: cell-based; conditions: 16 isolates, agar supplemented with pyruvate
[13] = system: Prevotella heparinolytica; type: cell-based; conditions: 16 isolates
Bacteroides ureolyticus = type: cell-based; conditions: 17 isolates
[14] = system: Anaerobiospirillum succiniciproducens; type: cell-based; conditions: 3 isolates
[15] = system: Peptostreptococcus prevotii; type: cell-based; conditions: Anaerococcus prevotii, read-out: Minimal Inhibitory Concentration 50% (MIC50); 9 isolates
[16] = read-out: Minimal Inhibitory Concentration 90% (MIC90)
[17] = read-out: Minimal Inhibitory Concentration 50% (MIC50)

## CC[C@H]1OC(=O)[C@H](C)[C@@H](O[C@H]2C[C@@](C)(OC)[C@@H](O)[C@H](C)O2)[C@H](C)[C@@H](O[C@@H]2O[C@H](C)C[C@H](N(C)C)[C@H]2O)[C@](C)(O)C[C@@H](C)CN(C)[C@H](C)[C@@H](O)[C@]1(C)O [Azithromycin]
Prevotella bivia; [16]
  MIC90: 1 µg/mL (≈ 1.34 µM)
Prevotella bivia; [17]
  MIC50: 0.5 µg/mL (≈ 0.668 µM)
Porphyromonas gingivalis; [17]
  MIC50: 0.25 µg/mL (≈ 0.334 µM)
Porphyromonas gingivalis; [16]
  MIC90: 0.5 µg/mL (≈ 0.668 µM)
Clostridium ramosum; [17]
  MIC50: 0.25 µg/mL (≈ 0.334 µM)
Clostridium ramosum; [16]
  MIC90: > 32 µg/mL
Clostridium dfficile; [17]
  MIC50: 2 µg/mL (≈ 2.67 µM)
Clostridium dfficile; read-out: Minimal Inhibitory Concentration 90% (MIC90), 14 isolates
  MIC90: > 32 µg/mL
[1]; [16]
  MIC90: 1 µg/mL (≈ 1.34 µM)
[1]; [17]
  MIC50: 0.5 µg/mL (≈ 0.668 µM)
Clostridium inocuum; [16]
  MIC90: > 32 µg/mL
Clostridium inocuum; [17]
  MIC50: > 32 µg/mL
Porphyromonas canoris; [17]
  MIC50: 0.25 µg/mL (≈ 0.334 µM)
Porphyromonas canoris; [16]
  MIC90: 0.25 µg/mL (≈ 0.334 µM)
Veillonella spp.; [16]
  MIC90: > 32 µg/mL
Veillonella spp.; [17]
  MIC50: 4 µg/mL (≈ 5.34 µM)
[2]; [16]
  MIC90: > 32 µg/mL
[2]; [17]
  MIC50: 16 µg/mL (≈ 21.4 µM)
Porphyromonas macaccae; [17]
  MIC50: 0.5 µg/mL (≈ 0.668 µM)
Porphyromonas macaccae; [16]
  MIC90: 0.5 µg/mL (≈ 0.668 µM)
[3]; [17]
  MIC50: 4 µg/mL (≈ 5.34 µM)
[3]; [16]
  MIC90: > 32 µg/mL
Prevotella intermedia
  Minimal Inhibitory Concentration Range: 0.03 to 1 µg/mL
Prevotella intermedia; Prevotella intermedia, read-out: Minimal Inhibitory Concentration 90% (MIC90)
  MIC90: 0.5 µg/mL (≈ 0.668 µM)
Prevotella intermedia; Prevotella intermedia, read-out: Minimal Inhibitory Concentration 50% (MIC50)
  MIC50: 0.125 µg/mL (≈ 0.167 µM)
[4]; [17]
  MIC50: 16 µg/mL (≈ 21.4 µM)
[4]; [16]
  MIC90: 32 µg/mL (≈ 42.7 µM)
[5]
  Minimal Inhibitory Concentration Range: 0.5 to 1 µg/mL
[5]; Parvimonas micra, read-out: Minimal Inhibitory Concentration 50% (MIC50)
  MIC50: 0.5 µg/mL (≈ 0.668 µM)
[5]; Parvimonas micra, read-out: Minimal Inhibitory Concentration 90% (MIC90)
  MIC90: 1 µg/mL (≈ 1.34 µM)
[6]; [17]
  MIC50: 0.5 µg/mL (≈ 0.668 µM)
[6]; [16]
  MIC90: 1 µg/mL (≈ 1.34 µM)
Bacteroides tectum
  Minimal Inhibitory Concentration Range: 0.5 to 2 µg/mL
Bacteroides tectum; Bacteroides pyogenes, read-out: Minimal Inhibitory Concentration 90% (MIC90)
  MIC90: 2 µg/mL (≈ 2.67 µM)
Bacteroides tectum; Bacteroides pyogenes, read-out: Minimal Inhibitory Concentration 50% (MIC50)
  MIC50: 1 µg/mL (≈ 1.34 µM)
Bacteroides gracilis
  Minimal Inhibitory Concentration Range: 0.06 to 0.5 µg/mL
Bacteroides gracilis; Campylobacter gracilis, read-out: Minimal Inhibitory Concentration 90% (MIC90)
  MIC90: 0.5 µg/mL (≈ 0.668 µM)
Bacteroides gracilis; Campylobacter gracilis, read-out: Minimal Inhibitory Concentration 50% (MIC50)
  MIC50: 0.125 µg/mL (≈ 0.167 µM)
[7]; [16]
  MIC90: 0.06 µg/mL (≈ 0.0801 µM)
[7]; [17]
  MIC50: 0.03 µg/mL (≈ 0.0401 µM)
[8]
  Minimal Inhibitory Concentration Range: 0.06 to 16 µg/mL
[8]; Prevotella denticola, read-out: Minimal Inhibitory Concentration 50% (MIC50)
  MIC50: 0.5 µg/mL (≈ 0.668 µM)
Porphyromonas spp.; [17]
  MIC50: 0.25 µg/mL (≈ 0.334 µM)
Porphyromonas spp.; [16]
  MIC90: 0.5 µg/mL (≈ 0.668 µM)
[9]
  Minimal Inhibitory Concentration Range: 0.06 to 32 µg/mL
[9]; Fusobacterium, GROUP1, read-out: Minimal Inhibitory Concentration 50% (MIC50)
  MIC50: 1 µg/mL (≈ 1.34 µM)
[9]; Fusobacterium, GROUP1, read-out: Minimal Inhibitory Concentration 90% (MIC90)
  MIC90: 8 µg/mL (≈ 10.7 µM)
[10]; [17]
  MIC50: 4 µg/mL (≈ 5.34 µM)
[10]; [16]
  MIC90: > 32 µg/mL
[11]; [17]
  MIC50: 0.25 µg/mL (≈ 0.334 µM)
[11]; [16]
  MIC90: > 32 µg/mL
Fusobacterium russii
  Minimal Inhibitory Concentration Range: 0.03 to 32 µg/mL
Fusobacterium russii; Fusobacterium russii, read-out: Minimal Inhibitory Concentration 50% (MIC50)
  MIC50: 0.25 µg/mL (≈ 0.334 µM)
Fusobacterium russii; Fusobacterium russii, read-out: Minimal Inhibitory Concentration 90% (MIC90)
  MIC90: 32 µg/mL (≈ 42.7 µM)
Fusobacterium varium; [17]
  MIC50: 32 µg/mL (≈ 42.7 µM)
Fusobacterium varium; [16]
  MIC90: > 32 µg/mL
Actinomyces israelii
  Minimal Inhibitory Concentration Range: 0.06 µg/mL
Actinomyces israelii; Actinomyces israelii, read-out: Minimal Inhibitory Concentration 50% (MIC50)
  MIC50: 0.06 µg/mL (≈ 0.0801 µM)
[12]; [16]
  MIC90: 32 µg/mL (≈ 42.7 µM)
[12]; [17]
  MIC50: 0.25 µg/mL (≈ 0.334 µM)
Bilophila wadsworthia
  Minimal Inhibitory Concentration Range: 1 to 16 µg/mL
Bilophila wadsworthia; Bilophila wadsworthia, read-out: Minimal Inhibitory Concentration 90% (MIC90)
  MIC90: 16 µg/mL (≈ 21.4 µM)
Bilophila wadsworthia; Bilophila wadsworthia, read-out: Minimal Inhibitory Concentration 50% (MIC50)
  MIC50: 4 µg/mL (≈ 5.34 µM)
[13]
  Minimal Inhibitory Concentration Range: 0.5 to 1 µg/mL
[13]; Prevotella heparinolytica, read-out: Minimal Inhibitory Concentration 90% (MIC90)
  MIC90: 1 µg/mL (≈ 1.34 µM)
[13]; Prevotella heparinolytica, read-out: Minimal Inhibitory Concentration 50% (MIC50)
  MIC50: 0.5 µg/mL (≈ 0.668 µM)
Bacteroides ureolyticus
  Minimal Inhibitory Concentration Range: 0.06 to 0.25 µg/mL
Bacteroides ureolyticus; Campylobacter ureolyticus, read-out: Minimal Inhibitory Concentration 90% (MIC90)
  MIC90: 0.25 µg/mL (≈ 0.334 µM)
Bacteroides ureolyticus; Campylobacter ureolyticus, read-out: Minimal Inhibitory Concentration 50% (MIC50)
  MIC50: 0.06 µg/mL (≈ 0.0801 µM)
[14]
  Minimal Inhibitory Concentration Range: 0.5 to 1 µg/mL
[14]; Anaerobiospirillum succiniciproducens, read-out: Minimal Inhibitory Concentration 50% (MIC50)
  MIC50: 0.5 µg/mL (≈ 0.668 µM)
[15]
  MIC50: 32 µg/mL (≈ 42.7 µM)

Reference: patent publication US6455540B1, “Methods of use of quinolone compounds against anaerobic pathogenic bacteria” (priority 1999, dated 2002)
